Assay results published in patent publication US12622892B2, “Methods for treating endometriosis” (THE TEXAS A&M UNIVERSITY SYSTEM, priority 2020, dated 2026).

Tests used:
ESECT-7 cells = experiment: Annexin V staining, ESECT-7; format: cell-based, human; conditions: 10 μM DIM-C-pPhOH-3-Cl-5-OCH3, 25 μM DIM-C-pPhOH, FIG. 3A
Description: Annexin V staining: ESECT-7 and ESECT-40 cells were seeded in Nunc chambered cover glass followed by various drug treatments. The cells were then washed with ice-cold PBS, and 5 μL Alexa Fluor® 488 Annexin V with 100 μg/mL PI (as per the manufacturer's instructions) were added to the cells and incubated for 15 min, and the cells were observed using a Zeiss confocal fluorescence microscope.

NEM cells = experiment: Annexin V staining, NEM cells; format: cell-based, human; conditions: 25 μM DIM-C-pPhOH, 10 μM DIM-C-pPhOH-3-Cl-5-OCH3, vs DMSO control, FIG. 4C

Question: How did the “Annexin V staining (apoptosis)” value (ESECT-7 cells) turn out when COc1cc(C(c2c[nH]c3ccccc23)c2c[nH]c3ccccc23)cc(Cl)c1O [DIM-C-pPhOH-3-Cl-5-OCH3] was run?
Answer: significantly induced

Question: What about the “Annexin V staining” value (NEM cells) of the same compound?
Answer: did not enhance
